According to patent US8175371B2, “Method for imaging and differential analysis of cells” (Amnis Corporation, priority 2004, dated 2012):

Tested on: Jurkat cells
Experiment: Annexin V / 7-AAD staining of treated Jurkat cells, evaluated by flow cytometry and fluorescence microscopy
Assay type: cell-based, Human
Conditions: Jurkat T cells, Alexa Fluor 488 annexin V and 7-AAD
Protocol: Human acute T leukemic Jurkat cell line was obtained from ATCC (Rockville, Md.; catalog number CRL-1990) and maintained in RPMI 1640 (Gibco, Grand Island, N.Y.) containing 5% fetal bovine serum, 1 mM sodium pyruvate (Mediatech, Herndon, Va.), 100 µM nonessential amino acids, 100 U/ml penicillin, 100 µg/ml streptomycin, and 2 mM L-glutamine (BioWhittaker, Walkersville, Md.) in 5% CO2 atmosphere at 37 degrees C. The density of exponentially growing cells was less than 3×10^5 cells per ml at the time of all treatments. To induce apoptosis, cells were treated for 18 hours with 1 µM camptothecin (CPT, Sigma), a DNA topoisomerase I inhibitor. […]
Control (untreated) cell, CPT treated (apoptotic) cells, and peroxide treated (necrotic) cells were independently counted and washed once in phosphate buffered saline (PBS, Fair Lawn, N.J.). […] Each cell group was washed in annexin V Binding Buffer, fixed in 2% paraformaldehyde (Sigma), and analyzed as either single populations or as a mixture by flow cytometry and immunofluorescence microscopy.
For flow cytometry, cell fluorescence data excited by a 488 nm laser were acquired using the FACSort™ cytometer (BD Immunocytometry Systems, San Jose, Calif.) and analyzed using CellQuest™ (BD Immunocytometry Systems). […]

| SMILES | annexin V / 7-AAD staining of treated cells (apoptosis induction) (1 µM CPT for 18 hours, FIG. 2B) | annexin V / 7-AAD staining of treated cells (necrosis induction) (0.3% hydrogen peroxide for 1 hour, FIG. 2C) |
| --- | --- | --- |
| CC[C@@]1(O)C(=O)OCc2c1cc1n(c2=O)Cc2cc3ccccc3nc2-1 [CPT, camptothecin] | two populations of cells, those that were annexin V^+ (single positive, SP, or early apoptotic cells), and those that were annexin V^+, 7-AAD^+ (double positive, DP, or late apoptotic cells) | – |
| OO [peroxide, hydrogen peroxide] | – | stained positively with both annexin V and 7-AAD |
